Results reported in patent publication US20040157240A1, “Diagnostic assay and related products” (The Brigham & Women's Hospital, Inc., priority 2002, published 2004).

What was measured:
[1] = CAMP (Childhood Asthma Management Program): clinical trial of inhaled budesonide vs. nedocromil vs. placebo, change in FEV1; type: in vivo, human
From the text: The Childhood Asthma Management Program (CAMP) was a randomized, double-masked, long term clinical trial testing the safety and efficacy of inhaled budesonide vs. nedocromil vs. placebo (27). The mean duration of follow-up was 4 years (28). 311 children (males and females for a variety of race and age groups) were randomized to the steroid group, with a mean improvement of 6.8% in their FEV1 at one year. Of these, 65% were Caucasian. These formed the basis for our replication sample.
CAMP is a multicenter, randomized, double-blinded clinical trial testing the safety and efficacy of inhaled budesonide vs. nedocromil vs. placebo over a mean of 4.3 years. Trial design and methodology have been published (27, 28). The replication sample subjects were the Caucasian CAMP children randomized to the steroid group, evaluated at their 2 month follow-up visit.
(§1) The primary outcome measure of the association analyses was percent change in FEV1 over time in response to inhaled steroids, defined as the FEV1 difference from baseline to eight weeks for the Adult Study and CAMP, and to six weeks in ACRN, divided by the baseline value.

[2] = Adult Study (Forest study): 8-week clinical trial of inhaled flunisolide vs. standard inhaled corticosteroid therapy, change in FEV1; type: in vivo, human; conditions: on inhaled corticosteroids, evaluated at 8 weeks; mean ± standard deviation; N 470
From the text: The Forest study (also known as the Adult Study) was an 8 week clinical trial used to compare the effect of once daily high dose inhaled flunisolide vs. “standard inhaled corticosteroid therapy” (performed by Forest Pharmaceuticals). […] Of these participants, 7% were African American, 3% were Hispanic and 2% were other. As 88% of these participants were Caucasian, analyses focus on this group. Additionally, females accounted for 58.5% of the participants.
The Adult Study was a multicenter 8-week randomized clinical trial comparing the effect of once-daily high-dose inhaled flunisolide vs. standard inhaled corticosteroid therapy. Inclusion criteria were a history of asthma, >12% improvement in FEV1 with albuterol and using inhaled steroids at randomization. Exclusion criteria were non-asthma pulmonary disease, smoking (≧10 pack-years) and recent asthma exacerbations requiring systemic steroids. Subjects were phoned weekly and had spirometry at 4 and 8 weeks.

[3] = ACRN (SOCS/SLIC) 6-week run-in period on inhaled triamcinolone, change in FEV1; type: in vivo, human; conditions: on inhaled corticosteroids, evaluated at 6 weeks; mean ± standard deviation; N 336
From the text: Two completed trials conducted by the ACRN (Asthma Clinical Research Network), the salmeterol or corticosteroids (SOCS) (54) and salmeterol±inhaled corticosteroids (SLIC)
Details regarding the entry criteria, run-in period and randomization have been published with the primary trial results (54, 55). Of the 339 subjects eligible for randomization, 336 had DNA available; 66.7% of these were Caucasian, forming the basis of the second replication sample.
as §1

[4] = tested on: β2-adrenergic receptor gene; conditions: cited from earlier work

CCCC1O[C@@H]2C[C@H]3[C@@H]4CCC5=CC(=O)C=C[C@]5(C)[C@H]4[C@@H](O)C[C@]3(C)[C@]2(C(=O)CO)O1 (stereo partly drawn) [Budesonide]
mean improvement in FEV1 ([1]; at one year, 311 children randomized to the steroid group): 6.8%
Mean Change in FEV1 ([1]; on inhaled corticosteroids, evaluated at 8 weeks, mean ± standard deviation, N 311): 8.3 ± 14.1%

CC1(C)O[C@@H]2C[C@H]3[C@@H]4C[C@H](F)C5=CC(=O)C=C[C@]5(C)[C@H]4[C@@H](O)C[C@]3(C)[C@]2(C(=O)CO)O1 [Flunisolide]
Mean Change in FEV1 [2]: 7.0 ± 19.3%

C[C@]12C=CC(=O)C=C1CC[C@H]1[C@@H]3C[C@@H](O)[C@](O)(C(=O)CO)[C@@]3(C)C[C@H](O)[C@@]12F [Triamcinolone]
Mean Change in FEV1 [3]: 6.7 ± 19.7%

CC(C)(C)NCC(O)c1ccc(O)c(CO)c1 (stereo not drawn) [albuterol]
acute bronchodilator response ([4]; Arg/Arg children than Gly/Gly children): more likely
peak expiratory flow rates ([4]; regular utilization, Arg/Arg at position 16, compared to Arg/Arg receiving prn and Gly/Gly): significantly decrease
